Results from patent US10220029B2, “Pharmaceutical composition comprising glutarimide derivatives and use thereof in the treatment of eosinophilic diseases” (OBSCHESTVO S ORGANICHENNOI OTVETSTVENNOSTIYU …, priority 2013, dated 2019).
Marks after values point to notes of the source that are not given here.

Columns and labels:
[1] = tested on: model of bronchial asthma in guinea pigs; assay: Content of cell elements in BAL in the model of bronchial asthma in guinea pigs; format: in vivo, guinea pig; conditions: Table 4; 14 mg/kg, 10 times of administration; n = 9
Method: Bronchial asthma in guinea pigs was induced by a standard method [Ricciardolo F L, Nijkamp F, De Rose V, Folkerts G. The guinea pig as an animal model for asthma// Current Drug Targets. 2008 June; 9(6):452-65]. The animals were immunized by one parenteral administration of 0.5 mL of a solution comprising 100 μg/mL ovalbumin (Sigma) and 100 mg/mL aluminium hydroxide. Intact animals received a physiological saline solution in an amount of 0.5 mL.
On days 29, 30 and 31, hyperactivity of the respiratory airways was provoked by inhalation administration of ovalbumin in ascending concentrations of 0.1, 0.3, and 0.5 mg/mL on days 1, 2, and 3 of the provocation, respectively. The inhalation lasted 5 minutes or until asphyxia symptoms became apparent (fall to one side). On day 32, the animals received a challenging dose of ovalbumin (1 mg/mL) for 5 minutes, while assessing a bronchospastic reaction.
The studied compounds were administered to the animals once daily every day for 6 or 10 days; the administration was terminated two days before the administration of the challenging dose of antigen.
The bronchoalveolar lavage (BAL) and cardiac cavity blood were derived from the animals 24 hours after administration of the challenging dose. The BAL was collected under anesthesia by lavaging the lungs with 5 mL of a physiological saline solution heated to 37° C. through the trachea, using a syringe dosing device.
The absolute number of cell elements in 1 μL of the lavage (cytosis) was counted in the bronchoalveolar lavage, using the Goryaev camera. Then, the BAL was centrifuged at 200 g for 10 minutes. The residue was used to prepare swabs that were fixed in methanol and stained according to Romanovsky-Giemsa to count endopulmonary cytogram.
The study comprised 3 experiments, wherein the first one was directed to the evaluation of the effect of claimed compounds 1-6 on the cell composition of the BAL, the second and the third experiments were aimed at evaluating the effect of compounds 1 and 2 on the cell composition of the BAL, the cell composition of the blood, and on the bronchospasm severity.

[2] = tested on: model of sephadex-induced eosinophilic lung inflammation in rats; assay: Content of cell elements in BAL in the model of sephadex-induced eosinophilic lung inflammation in rats; format: in vivo, male Wistar rats; conditions: Table 9, four times, BAL 48 hours after sephadex, n = 7
Method: The model of sephadex-induced eosinophilic lung inflammation in rats was realized by a standard method [Evaldsson C, Rydén I, Uppugunduri S. Isomaltitol exacerbates neutrophilia but reduces eosinophilia: new insights into the sephadex model of lung inflammation//Int Arch Allergy Immunol. 2011; 154(4):286-94]. Sephadex G-200 (Pharmacia, Sweden) was administered one time by inhalation to male Wistar rats at a dose of 5 mg/kg. The studied compounds were administered to the animals by the intragastric route four times: 24 hours and 1 hour before and 24 hours and 45 hours after administration of sephadex. The reference preparation, budesonide, was administered according to the same scheme, by inhalation at a dose of 0.5 mg/kg. Bronchoalveolar lavage was taken 48 hours after the inhalation of sephadex, and the total lymphocyte count and leukocyte formula in the lavage were determined. The number of rats in a group was 7 to 10.

[3] = tested on: model of leukotriene-induced eosinophilic lung inflammation in guinea pigs; assay: Content of cell elements in BAL in the model of leukotriene-induced eosinophilic lung inflammation in guinea pigs; format: in vivo, guinea pig; conditions: 0.8 mg/kg intragastric, one time one hour before LTD4 (reference preparation); BAL 48 hours after LTD4; n = 8
Description: The model of leukotriene-induced eosinophilic lung inflammation in guinea pigs was realized by a standard method [Underwood DC1, Osborn R R, Newsholme S J, Torphy T J, Hay D W. Persistent airway eosinophilia after leukotriene (LT) D4 administration in the guinea pig: modulation by the LTD4 receptor antagonist, pranlukast, or an interleukin-5 monoclonal antibody// Am J Respir Crit Care Med. 1996 October; 154(4 Pt 1):850-7]. A solution of leukotriene D4 (LTD4, Cayman Chemical, USA) at a concentration of […] (a flow rate of 250 mL/hr) was inhaled to male guinea pigs (250-300 g) under conditions of a double-chamber plethysmograph (Emka Technologies, France) for one minute. The studied compound was administered to the animals by the intragastric route four times: 24 hours and 1 hour before and 24 hours and 45 hours after the inhalation of LTD4. The reference preparation, montelukast (0.8 mg/kg), was administered one time by the intragastric route one hour before the inhalation of LTD4. Bronchoalveolar lavage was taken 48 hours after the inhalation of LTD4, and the total lymphocyte count and leukocyte formula were determined in the lavage. The number of guinea pigs in a group was 8.

Compound	Eosinophils in BAL [1]	Lymphocytes in BAL [1]	Monocytes in BAL [1]	Neutrophils in BAL [1]	Eosinophils, content of cell elements in 1 μL of BAL ([2]; 1.8 mg/kg intragastric)	Leukocytes, content of cell elements in 1 μL of BAL ([2]; 1.8 mg/kg intragastric)	Lymphocytes, content of cell elements in 1 μL of BAL ([2]; 1.8 mg/kg intragastric)	Macrophages, content of cell elements in 1 μL of BAL ([2]; 1.8 mg/kg intragastric)	Neutrophils, content of cell elements in 1 μL of BAL ([2]; 1.8 mg/kg intragastric)	Eosinophils, content of cell elements in 1 μL of BAL ([2]; 18 mg/kg intragastric)	Leukocytes, content of cell elements in 1 μL of BAL ([2]; 18 mg/kg intragastric)	Lymphocytes, content of cell elements in 1 μL of BAL ([2]; 18 mg/kg intragastric)	Macrophages, content of cell elements in 1 μL of BAL ([2]; 18 mg/kg intragastric)	Neutrophils, content of cell elements in 1 μL of BAL ([2]; 18 mg/kg intragastric)	Eosinophils, content of cell elements in 1 μL of BAL [3]	Leukocytes, content of cell elements in 1 μL of BAL [3]	Lymphocytes, content of cell elements in 1 μL of BAL [3]	Macrophages, content of cell elements in 1 μL of BAL [3]	Neutrophils, content of cell elements in 1 μL of BAL [3]
O=C1CCCC(=O)N1CCc1nccs1 [Compound 6]	0.60 ± 0.21*& 10^9/L	1.03 ± 0.24* 10^9/L	0.83 ± 0.18* 10^9/L	0.97 ± 0.28* 10^9/L															
Cl.O=C1CCCC(=O)N1CCC1CCCN1 (centres unmarked) [Compound 7]					28 ± 16& in 1 μL of BAL	2242 ± 289& in 1 μL of BAL	16 ± 10 in 1 μL of BAL	913 ± 235& in 1 μL of BAL	389 ± 188 in 1 μL of BAL	164 ± 62 & in 1 μL of BAL	1725 ± 345& in 1 μL of BAL	29 ± 17 in 1 μL of BAL	909 ± 299& in 1 μL of BAL	136 ± 50& in 1 μL of BAL					
CC1CC(=O)N(CCc2cnc[nH]2)C(=O)C1 [Compound 8]					202 ± 53*& in 1 μL of BAL	2796 ± 333 & in 1 μL of BAL	82 ± 44 in 1 μL of BAL	1860 ± 204& in 1 μL of BAL	303 ± 104& in 1 μL of BAL	318 ± 65*& in 1 μL of BAL	4250 ± 576 in 1 μL of BAL	64 ± 45 in 1 μL of BAL	2050 ± 462& in 1 μL of BAL	583 ± 180 in 1 μL of BAL					
CC(C)(O)c1ccccc1CC[C@@H](SCC1(CC(=O)O)CC1)c1cccc(/C=C/c2ccc3ccc(Cl)cc3n2)c1 [Montelukast, montelukast, reference compound]															618 ± 116*& in 1 μL of BAL	24065 ± 415*& in 1 μL of BAL	96 ± 39 in 1 μL of BAL	1519 ± 263 in 1 μL of BAL	173 ± 41 in 1 μL of BAL
